The text below walks through data of US10045530B2, “Agricultural pheromone compositions comprising positional isomers” (PROVIVI, INC., priority 2015, dated 2018).

In one data set the test system is alkB2 Gordonia sp TF6.
Test: not given
As to conditions: terminal hydroxylation; 100% relative activity obtained with hexane; cited from earlier work.
Regarding `CCCCCCCCCC` [C10], the “Relative activity, alkB2 Gordonia sp TF6 (Fujii et al., 2004, Biosci. Biotechnol. Biochem. 68: 2171-2177)” value (shortened to “Relative activity, alkB2 Gordonia sp TF6”) is listed as 66%.

Turning to `CCCCCCCCCCCC` [C12], the “Relative activity, alkB2 Gordonia sp TF6” value is 34%.

As for `CCCCCCCCC` [C9], the “Relative activity, alkB2 Gordonia sp TF6” value was 63%.

`CCCCCCCCCCC` [C11]: the “Relative activity, alkB2 Gordonia sp TF6” value is given as 48%.

As to `CCCCCCCC` [C8], the “Relative activity, alkB2 Gordonia sp TF6” value is on record as 72%.

The next data set relates to CYP153A6.
Test: not given
As to conditions: cited from earlier work.
Take `CCCCCCCCCC` [C10]: the “Relative activity, CYP153A6 (Funhoff et al., 2006, J. Bacteriol. 188: 5220-5227)” value (“Relative activity, CYP153A6” below) is 23.

For the compound `CCCCCCCCC` [C9], the “Relative activity, CYP153A6” value was 82.

Consider `CCCCCCCCCCC` [C11], for which the “Relative activity, CYP153A6” value is reported as 1.

For `CCCCCCCC` [C8], the “Relative activity, CYP153A6” value was 100.

The next data set addresses T1, CYP52A4 (Candida maltosa, UniProt P16141).
T1 sequence (P16141 1-538): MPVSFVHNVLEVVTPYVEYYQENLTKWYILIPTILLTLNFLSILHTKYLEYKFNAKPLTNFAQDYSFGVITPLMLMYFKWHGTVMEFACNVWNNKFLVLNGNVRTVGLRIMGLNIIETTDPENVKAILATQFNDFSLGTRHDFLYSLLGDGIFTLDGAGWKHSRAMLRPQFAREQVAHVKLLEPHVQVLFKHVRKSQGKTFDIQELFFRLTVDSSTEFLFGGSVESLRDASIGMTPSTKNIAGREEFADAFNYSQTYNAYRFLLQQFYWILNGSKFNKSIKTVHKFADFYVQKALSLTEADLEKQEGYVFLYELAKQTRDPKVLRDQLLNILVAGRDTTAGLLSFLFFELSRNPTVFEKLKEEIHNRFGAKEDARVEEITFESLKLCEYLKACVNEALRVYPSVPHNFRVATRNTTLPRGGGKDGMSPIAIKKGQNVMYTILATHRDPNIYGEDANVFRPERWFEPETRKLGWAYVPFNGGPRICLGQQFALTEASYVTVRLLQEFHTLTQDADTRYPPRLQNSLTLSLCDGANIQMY
Test: not given
The following applies: terminal hydroxylation; by alkane/FA chain length; cited from earlier work.
As to `CCCCCCCCCCCCCCCCCC(=O)O` [C18 FA (Stearic)], the “Relative activity, CYP52A4 (Scheller et al., 1996, Arch. Biochem Biophys. 328: 245-254)” value (shortened to “Relative activity, CYP52A4”) is on record as 1.

Turning to `CCCCCCCCCCCCCCCC(=O)O` [C16 FA (Palmetic)], the “Relative activity, CYP52A4” value is listed as 18.

For `CCCCCCCCCCCC` [C12], the “Relative activity, CYP52A4” value is 37.

Regarding `CCCCCCCCCCCCCCCCCC` [C18], the “Relative activity, CYP52A4” value is 20.

Turning to `CCCCCCCCCCCC(=O)O` [C12 FA (lauric)], the “Relative activity, CYP52A4” value is 100.

Consider `CCCCCCCCCCCCCCCC` [C16], for which the “Relative activity, CYP52A4” value is recorded as 33.

The target of a further data set is T2, AlkB P. putida GPo1 (Ectopseudomonas oleovorans, UniProt P12691).
T2 sequence (P12691 1-401): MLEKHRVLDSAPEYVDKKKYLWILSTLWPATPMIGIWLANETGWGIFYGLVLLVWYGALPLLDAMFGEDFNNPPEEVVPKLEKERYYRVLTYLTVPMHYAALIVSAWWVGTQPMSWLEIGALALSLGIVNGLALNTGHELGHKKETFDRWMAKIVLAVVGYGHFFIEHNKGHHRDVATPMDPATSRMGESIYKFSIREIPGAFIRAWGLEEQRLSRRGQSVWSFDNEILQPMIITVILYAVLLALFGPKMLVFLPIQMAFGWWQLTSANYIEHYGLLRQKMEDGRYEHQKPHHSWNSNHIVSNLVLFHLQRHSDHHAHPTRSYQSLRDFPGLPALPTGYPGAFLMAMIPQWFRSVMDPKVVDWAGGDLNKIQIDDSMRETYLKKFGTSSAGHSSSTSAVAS
Test: not given
As to conditions: terminal hydroxylation; by alkane/FA chain length; cited from earlier work.
For `CCCCCCCCCC` [C10], the “Relative activity, AlkB P. putida GPo1 (Vanbeilen et al., 1994, Enzyme Microb. Technol. 16: 904-911)” value (“Relative activity, AlkB P. putida GPo1” below) is 60.

As to `CCCCCCCCC` [C9], the “Relative activity, AlkB P. putida GPo1” value is 100.

In the case of `CCCCCCCCCCC` [C11], the “Relative activity, AlkB P. putida GPo1” value is recorded as 6.

Turning to `CCCCCCCC` [C8], the “Relative activity, AlkB P. putida GPo1” value is recorded as 95.

The next data set addresses T3, LadA (Geobacillus thermodenitrificans, UniProt A4IU28).
T3 sequence (A4IU28 1-440): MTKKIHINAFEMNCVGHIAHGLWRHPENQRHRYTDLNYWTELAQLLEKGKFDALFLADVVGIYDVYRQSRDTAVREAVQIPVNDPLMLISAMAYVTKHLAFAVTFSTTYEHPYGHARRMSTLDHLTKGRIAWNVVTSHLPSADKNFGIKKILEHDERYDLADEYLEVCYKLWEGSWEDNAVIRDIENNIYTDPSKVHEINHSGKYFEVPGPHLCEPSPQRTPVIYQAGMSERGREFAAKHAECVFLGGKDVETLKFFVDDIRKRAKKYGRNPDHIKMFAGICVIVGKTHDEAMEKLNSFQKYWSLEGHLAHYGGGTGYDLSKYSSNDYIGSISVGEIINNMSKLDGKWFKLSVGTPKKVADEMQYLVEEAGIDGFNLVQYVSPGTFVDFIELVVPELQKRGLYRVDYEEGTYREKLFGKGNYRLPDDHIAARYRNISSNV
Test: not given
The following applies: terminal hydroxylation; by alkane/FA chain length; cited from earlier work.
In the case of `CCCCCCCCCCCCCCCCCCCCCCCC` [C24], the “Relative activity, LadA (Feng et al., 2007, Proc. Natl. Acad. Sci. U.S.A. 104: 5602-5607)” value (shortened to “Relative activity, LadA”) was 65.

As for `CCCCCCCCCCCCCCCCCCCCCC` [C22], the “Relative activity, LadA” value is listed as 74.

Regarding `CCCCCCCCCCCCCCC` [C15], the “Relative activity, LadA” value was 83.

`CCCCCCCCCCCCCCCCCC` [C18]: the “Relative activity, LadA” value is on record as 78.

For `CCCCCCCCCCCCCCCC` [C16], the “Relative activity, LadA” value is on record as 100.

The next data set deals with CYP153A16.
Test: not given
As to conditions: cited from earlier work.
Consider `CCCCCCCCCC` [C10], for which the “Relative activity, CYP153A16 (Scheps et al., 2011, Org. Biomol. Chem. 9: 6727-6733)” value (shortened to “Relative activity, CYP153A16”) is 13.

In the case of `CCCCCCCCC` [C9], the “Relative activity, CYP153A16” value is reported as 29.

As to `CCCCCCCCCCC` [C11], the “Relative activity, CYP153A16” value is less than 8.

With `CCCCCCCC` [C8], the “Relative activity, CYP153A16” value is 100.

The subject of a further data set is CYP153A P. sp.
Test: not given
The following applies: cited from earlier work.
As for `CCCCCCCCCC` [C10], the “Relative activity, CYP153A P. sp. (Scheps et al., 2011, Org. Biomol. Chem. 9: 6727-6733)” value is recorded as 60.

For the compound `CCCCCCCCC` [C9], the “Relative activity, CYP153A P. sp. (Scheps et al., 2011, Org. Biomol. Chem. 9: 6727-6733)” value is 69.

For `CCCCCCCCCCC` [C11], the “Relative activity, CYP153A P. sp. (Scheps et al., 2011, Org. Biomol. Chem. 9: 6727-6733)” value is on record as less than 6.

As for `CCCCCCCC` [C8], the “Relative activity, CYP153A P. sp. (Scheps et al., 2011, Org. Biomol. Chem. 9: 6727-6733)” value is recorded as 100.

A further data set concerns the target T4, CYP52A3 (Candida maltosa, UniProt P16496).
T4 sequence (P16496 2-523 limits assumed): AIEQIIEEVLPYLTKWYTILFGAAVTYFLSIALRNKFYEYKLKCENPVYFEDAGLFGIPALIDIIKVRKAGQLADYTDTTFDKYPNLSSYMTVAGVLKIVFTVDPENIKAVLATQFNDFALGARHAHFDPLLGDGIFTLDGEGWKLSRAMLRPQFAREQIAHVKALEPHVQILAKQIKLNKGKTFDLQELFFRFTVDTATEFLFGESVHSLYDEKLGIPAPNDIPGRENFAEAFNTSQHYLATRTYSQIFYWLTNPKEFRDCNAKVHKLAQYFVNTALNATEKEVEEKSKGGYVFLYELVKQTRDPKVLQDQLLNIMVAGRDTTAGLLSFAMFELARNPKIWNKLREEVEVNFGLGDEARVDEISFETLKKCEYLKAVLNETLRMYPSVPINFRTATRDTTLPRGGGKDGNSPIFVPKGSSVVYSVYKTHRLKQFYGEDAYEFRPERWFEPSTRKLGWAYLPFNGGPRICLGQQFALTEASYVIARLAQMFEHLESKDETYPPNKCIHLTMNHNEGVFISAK
Test: not given
The following applies: terminal hydroxylation; by alkane/FA chain length; cited from earlier work.
In the case of `CCCCCCCCCCCCCCCCCC(=O)O` [C18 FA (Stearic)], the “Relative activity, CYP52A3 (Scheller et al., 1996, Arch. Biochem Biophys. 328: 245-254)” value (“Relative activity, CYP52A3” below) is 30.

In the case of `CCCCCCCCCCCCCCCC(=O)O` [C16 FA (Palmetic)], the “Relative activity, CYP52A3” value is listed as 35.

Regarding `CCCCCCCCCCCC` [C12], the “Relative activity, CYP52A3” value is reported as 41.

In the case of `CCCCCCCCCCCCCCCCCC` [C18], the “Relative activity, CYP52A3” value was 48.

Turning to `CCCCCCCCCCCC(=O)O` [C12 FA (lauric)], the “Relative activity, CYP52A3” value was 20.

For `CCCCCCCCCCCCCCCC` [C16], the “Relative activity, CYP52A3” value was 100.

For another data set, the system named is CYP52A21.
Test: not given
The following applies: cited from earlier work.
Regarding `CCCCCCCCCCCCCC(=O)O` [C14 FA (Myristic)], the “Relative activity, CYP52A21 (Kim et al., 2007, Arch. Biochem. Biophys. 464: 213-220)” value (from here on “Relative activity, CYP52A21”) is 86.

The same data set, now with this note: terminal hydroxylation; by alkane/FA chain length; cited from earlier work.
In the case of `CCCCCCCCCCCCCCCC(=O)O` [C16 FA (Palmetic)], the “Relative activity, CYP52A21” value is reported as 29.

In the case of `CCCCCCCCCCCC(=O)O` [C12 FA (lauric)], the “Relative activity, CYP52A21” value was 100.

The next data set has as its system Helicoverpa zea. Briefly: Wind tunnel bioassay: upwind flight and lure location of male moths. Type of data set: in vivo. As to conditions: conclusions from 8.1-8.2. The protocol: Four separate experiments were conducted with the moth Helicoverpa zea and its respective pheromone components (Z-11-hexadecenal, Z-9-hexadecenal). Further, the addition of Z-5-hexadecenal, the positional isomer of the natural insect Z-11-hexadecenal pheromone, was also added to the Z-11 and Z-9 blends and tested. Upwind flight and lure location of male moths were compared for: natural ratios of pheromone (97% Z-11-hexadecenal with 3% of Z-9-hexadecenal) with and without addition of the Z-5-hexadecenal positional isomer at various ratios.
Moths (4-6 day-old males in second half of scotophase) were flown in a glass wind tunnel (120×30×30 cm). A fan pushed air into the wind tunnel at 0.4 m sec^−1 and a second fan exhausted air at a similar rate. To provide visual cues for navigation, the floor was covered with light colored construction paper on which small (2-5 cm) circles were drawn with marker (Experiment 1) or light colored circles that were cut from light colored construction paper were placed on the floor (Experiments 2-4). Lures were made with Soxhlet-extracted, grey-rubber septa from West. […]
A moth in a release cage was held on a platform 20 cm above the floor for 15 s in the plume of pheromone and then released by turning open end of the cage toward upwind. […] Flights were recorded on video and data were collected from videos. […]
Regarding `CCCCCCCCCC/C=C\CCCC=O` [Z-5-hexadecedenal, Z-5-hexadecenal], the upwind flight response entry was “triggers a similar upwind flight response”.
